Measurements taken from the NIST ThermoML archive (doi:10.1016/j.fluid.2018.04.024).
Numbers after ± are expanded uncertainties.

Conditions: Liquid, Vibrating tube method

CCCCCCCC(=O)OC [methyl octanoate]
mass density [kg/m3]
Conditions	293.15 K	303.15 K	313.15 K	323.15 K	333.15 K	343.15 K	353.15 K	363.15 K
100 kPa	876.9 ± 0.9	867.63 ± 0.89	859.3 ± 0.89	850.11 ± 0.88	841.41 ± 0.87	832.2 ± 0.86	823.55 ± 0.85	814.86 ± 0.84
1000 kPa	877.02 ± 0.9	868.42 ± 0.9	859.59 ± 0.89	850.91 ± 0.88	842.13 ± 0.87	833.32 ± 0.86	824.37 ± 0.85	815.91 ± 0.85
3000 kPa	878.65 ± 0.91	869.93 ± 0.9	861.28 ± 0.89	852.59 ± 0.88	844.08 ± 0.88	835.25 ± 0.87	826.59 ± 0.86	818.18 ± 0.85
5000 kPa	879.78 ± 0.91	871.47 ± 0.9	862.89 ± 0.9	854.3 ± 0.89	845.82 ± 0.88	837.24 ± 0.87	828.51 ± 0.86	820.31 ± 0.86
10000 kPa	883.45 ± 0.92	875.12 ± 0.91	866.8 ± 0.91	858.46 ± 0.9	850.11 ± 0.89	841.71 ± 0.88	833.34 ± 0.88	825.1 ± 0.87
15000 kPa	886.82 ± 0.93	878.71 ± 0.92	870.52 ± 0.92	862.36 ± 0.91	854.18 ± 0.9	846.06 ± 0.9	838.05 ± 0.89	830.33 ± 0.89
20000 kPa	890.07 ± 0.94	882.04 ± 0.93	874.1 ± 0.92	866.24 ± 0.92	858.22 ± 0.91	850.39 ± 0.91	842.32 ± 0.9	834.62 ± 0.9
25000 kPa	893.28 ± 0.94	885.35 ± 0.94	877.59 ± 0.93	869.67 ± 0.93	862.06 ± 0.92	854.17 ± 0.92	846.49 ± 0.92	838.84 ± 0.91
30000 kPa	896.35 ± 0.95	888.57 ± 0.95	880.87 ± 0.94	873.15 ± 0.94	865.57 ± 0.94	858.07 ± 0.93	850.48 ± 0.93	843.09 ± 0.93
35000 kPa	899.25 ± 0.96	891.59 ± 0.96	884.11 ± 0.95	876.46 ± 0.95	869.05 ± 0.95	861.81 ± 0.94	854.32 ± 0.94	847.13 ± 0.94
40000 kPa	902.05 ± 0.97	894.49 ± 0.96	887.04 ± 0.96	879.75 ± 0.96	872.61 ± 0.96	865.19 ± 0.95	857.88 ± 0.95	851.06 ± 0.95
50000 kPa	907.81 ± 0.98	900.27 ± 0.98	893.07 ± 0.98	885.93 ± 0.98	878.98 ± 0.98	872.01 ± 0.98	864.82 ± 0.98	858.24 ± 0.98
60000 kPa	912.62 ± 0.99	905.64 ± 0.99	898.5 ± 0.99	891.84 ± 0.99	884.95 ± 1	877.98 ± 1	871.35 ± 1	865.07 ± 1

CCCCC(=O)OC [methyl pentanoate]
mass density [kg/m3]
Conditions	293.15 K	303.15 K	313.15 K	323.15 K	333.15 K	343.15 K	353.15 K	363.15 K
100 kPa	890.18 ± 0.92	879.57 ± 0.91	869.49 ± 0.9	858.83 ± 0.89	848.52 ± 0.88	837.8 ± 0.87	827.35 ± 0.86	816.63 ± 0.85
1000 kPa	890.39 ± 0.92	880.52 ± 0.91	869.89 ± 0.9	859.81 ± 0.89	849.45 ± 0.88	839.04 ± 0.87	828.43 ± 0.86	817.89 ± 0.85
3000 kPa	892.23 ± 0.92	882.29 ± 0.91	871.87 ± 0.9	861.81 ± 0.89	851.71 ± 0.88	841.41 ± 0.87	831.13 ± 0.86	820.7 ± 0.86
5000 kPa	893.59 ± 0.92	884.05 ± 0.91	873.76 ± 0.91	863.85 ± 0.9	853.79 ± 0.89	843.76 ± 0.88	833.48 ± 0.87	823.32 ± 0.86
10000 kPa	897.77 ± 0.93	888.3 ± 0.92	878.33 ± 0.92	868.67 ± 0.91	858.86 ± 0.9	849.05 ± 0.89	839.27 ± 0.88	829.23 ± 0.88
15000 kPa	901.59 ± 0.94	892.37 ± 0.93	882.44 ± 0.92	873.18 ± 0.92	863.66 ± 0.91	854.23 ± 0.9	844.84 ± 0.9	835.46 ± 0.89
20000 kPa	905.28 ± 0.95	896.14 ± 0.94	886.62 ± 0.93	877.67 ± 0.93	868.26 ± 0.92	859.25 ± 0.91	849.86 ± 0.91	840.59 ± 0.9
25000 kPa	908.91 ± 0.95	899.89 ± 0.95	890.61 ± 0.94	881.64 ± 0.94	872.72 ± 0.93	863.69 ± 0.93	854.79 ± 0.92	845.61 ± 0.92
30000 kPa	912.4 ± 0.96	903.55 ± 0.96	894.38 ± 0.95	885.65 ± 0.95	876.79 ± 0.94	868.17 ± 0.94	859.45 ± 0.93	850.57 ± 0.93
35000 kPa	915.63 ± 0.97	906.97 ± 0.96	898.09 ± 0.96	889.44 ± 0.96	880.79 ± 0.95	872.41 ± 0.95	863.9 ± 0.94	855.31 ± 0.94
40000 kPa	918.78 ± 0.97	910.27 ± 0.97	901.45 ± 0.97	893.13 ± 0.96	884.78 ± 0.96	876.28 ± 0.96	868 ± 0.96	859.8 ± 0.95
50000 kPa	925.12 ± 0.99	916.73 ± 0.98	908.24 ± 0.98	900.12 ± 0.98	892.02 ± 0.98	884.03 ± 0.98	875.94 ± 0.98	868.09 ± 0.98
60000 kPa	930.63 ± 1	922.74 ± 1	914.32 ± 1	906.77 ± 0.99	898.8 ± 0.99	890.84 ± 0.99	883.37 ± 1	875.9 ± 1
